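Growth conditions: 96-well plates. Treatment: test compound, 48 hours, 5 concentrations. Analysis: linear interpolation between bracketing concentrations; unreached endpoints set to highest concentration. GI50 marks 50% less growth.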 Active and inactive are the calls of the source. Cut-off read from the data, not from the text of the source: active = GI50 up to about 1.1 µM and inactive = higher.
Assays:
Assay in all cases: DTP human tumour cell line panel, 48 h
SF-268 = tested on: SF-268
786-0 = tested on: 786-0
M14 = tested on: M14
SW-620 = tested on: SW-620
T47D = tested on: T47D
U-251 = tested on: U-251
MOLT-4 = tested on: MOLT-4
UO-31 = tested on: UO-31
PC-3 = tested on: PC-3
K562 = tested on: K562
DU-145 = tested on: DU-145
KM12 = tested on: KM12
SF-539 = tested on: SF-539
RXF 393 = tested on: RXF 393
CAKI-1 = tested on: CAKI-1
SN12C = tested on: SN12C
HL-60 = tested on: HL-60
SK-MEL-2 = tested on: SK-MEL-2
A549 = tested on: A549
NCI-H460 = tested on: NCI-H460

Measured: GI50

Nc1cc(Cl)ccc1SSc1ccc(Cl)cc1N
inactive: SF-268 14.7 µM | 786-0 13.2 µM | M14 8.65 µM | SW-620 3.94 µM | T47D 5.92 µM | U-251 4.15 µM | MOLT-4 4.06 µM | UO-31 7 µM | PC-3 5.7 µM | K562 10.4 µM | DU-145 15.2 µM | KM12 9.51 µM | SF-539 12 µM | RXF 393 10.3 µM | CAKI-1 19.6 µM | SN12C 11.9 µM | HL-60 16 µM | SK-MEL-2 17 µM | A549 23.1 µM | NCI-H460 12.5 µM

CCOC(=O)NC
inactive: SF-268 > 100 µM | 786-0 > 100 µM | M14 > 100 µM | SW-620 > 100 µM | T47D > 100 µM | U-251 > 100 µM | UO-31 > 100 µM | PC-3 > 100 µM | K562 > 100 µM | DU-145 > 100 µM | KM12 > 100 µM | SF-539 > 100 µM | RXF 393 > 100 µM | CAKI-1 > 100 µM | SN12C > 100 µM | HL-60 > 100 µM | SK-MEL-2 > 100 µM | A549 > 100 µM | NCI-H460 > 100 µM

COc1ccc(-c2cc3c(nn2)-c2ccccc2C3=O)cc1
inactive: SF-268 > 10 µM | 786-0 > 10 µM | M14 > 10 µM | SW-620 > 10 µM | T47D > 10 µM | U-251 > 10 µM | UO-31 > 10 µM | PC-3 > 10 µM | K562 > 10 µM | DU-145 > 10 µM | KM12 > 10 µM | SF-539 > 10 µM | RXF 393 > 10 µM | CAKI-1 > 10 µM | SN12C > 10 µM | HL-60 > 10 µM | SK-MEL-2 > 10 µM | A549 > 10 µM | NCI-H460 > 10 µM

Cc1[nH]c2ccccc2c1-c1cc(-c2cc(-c3c(C)[nH]c4ccccc34)on2)no1
inactive: SF-268 52.7 µM | 786-0 92 µM | M14 37.7 µM | SW-620 53.2 µM | T47D 85.5 µM | U-251 77.8 µM | MOLT-4 > 100 µM | UO-31 46.6 µM | PC-3 63 µM | K562 56.6 µM | DU-145 > 100 µM | KM12 42.6 µM | SF-539 49 µM | RXF 393 37.7 µM | CAKI-1 76.2 µM | SN12C > 100 µM | HL-60 34.5 µM | SK-MEL-2 > 100 µM | A549 > 100 µM | NCI-H460 42 µM

Nc1nc(Cl)cc(NCC2(O)CC(CO)C2)n1 (stereo not given)
inactive: SF-268 > 100 µM | 786-0 > 100 µM | SW-620 > 100 µM | T47D > 100 µM | U-251 > 100 µM | MOLT-4 > 100 µM | UO-31 > 100 µM | PC-3 > 100 µM | K562 > 100 µM | DU-145 > 100 µM | KM12 > 100 µM | SF-539 > 100 µM | RXF 393 > 100 µM | CAKI-1 > 100 µM | SN12C > 100 µM | HL-60 > 100 µM | SK-MEL-2 > 100 µM | A549 > 100 µM | NCI-H460 > 100 µM

Cc1ccc(S(=O)(=O)NC(=O)NCc2ccc(S(N)(=O)=O)cc2)cc1
inactive: SF-268 > 100 µM | 786-0 > 100 µM | M14 > 100 µM | SW-620 > 100 µM | T47D > 100 µM | U-251 > 100 µM | MOLT-4 > 100 µM | UO-31 > 100 µM | PC-3 > 100 µM | K562 > 100 µM | DU-145 > 100 µM | KM12 > 100 µM | SF-539 > 100 µM | RXF 393 > 100 µM | CAKI-1 > 100 µM | HL-60 > 100 µM | SK-MEL-2 > 100 µM | A549 > 100 µM | NCI-H460 > 100 µM

C#CCOC(=O)C(N)CSSCC(N)C(=O)O (stereo not given)
inactive: SF-268 > 100 µM | 786-0 > 100 µM | M14 > 100 µM | SW-620 > 100 µM | T47D > 100 µM | U-251 > 100 µM | MOLT-4 > 100 µM | UO-31 > 100 µM | PC-3 > 100 µM | DU-145 > 100 µM | KM12 > 100 µM | SF-539 > 100 µM | RXF 393 > 100 µM | CAKI-1 > 100 µM | SN12C > 100 µM | HL-60 > 100 µM | SK-MEL-2 > 100 µM | A549 > 100 µM | NCI-H460 > 100 µM

O=C1C=C(O)C(=O)c2c(O)ccc(O)c21
inactive: SF-268 > 100 µM | 786-0 > 100 µM | M14 > 100 µM | SW-620 > 100 µM | T47D > 100 µM | U-251 > 100 µM | MOLT-4 > 100 µM | UO-31 > 100 µM | PC-3 > 100 µM | K562 > 100 µM | DU-145 > 100 µM | KM12 > 100 µM | SF-539 > 100 µM | RXF 393 > 100 µM | CAKI-1 > 100 µM | HL-60 58.5 µM | SK-MEL-2 > 100 µM | A549 > 100 µM | NCI-H460 > 100 µM

COC1=C2CC(C)CC(OC)C(OC(=O)CCCN)C(C)/C=C(\C)C(OC(N)=O)C(OC)/C=C\C=C(/C)C(=O)NC(=CC1=O)C2=O (stereo not given)
active: SW-620 0.873 µM | T47D 1.09 µM | MOLT-4 0.815 µM | K562 0.54 µM | HL-60 0.289 µM
inactive: SF-268 10.3 µM | 786-0 3.68 µM | M14 4.56 µM | U-251 18.5 µM | UO-31 10.5 µM | PC-3 9.2 µM | DU-145 9.23 µM | KM12 10.3 µM | SF-539 6.71 µM | RXF 393 3.12 µM | CAKI-1 10.7 µM | SN12C 5.5 µM | SK-MEL-2 12.1 µM | A549 25.5 µM | NCI-H460 15.5 µM

C=C1OC2OC(C)C(NC(=O)OCC(Cl)(Cl)Cl)C(OC(C)=O)C2O1 (stereo not given)
inactive: SF-268 > 100 µM | 786-0 > 100 µM | M14 > 100 µM | SW-620 > 100 µM | T47D > 100 µM | U-251 > 100 µM | MOLT-4 > 100 µM | UO-31 > 100 µM | PC-3 > 100 µM | K562 > 100 µM | DU-145 > 100 µM | KM12 > 100 µM | SF-539 > 100 µM | RXF 393 > 100 µM | CAKI-1 > 100 µM | SN12C > 100 µM | HL-60 > 100 µM | A549 > 100 µM | NCI-H460 > 100 µM

COc1ccc(OC)c(C2CCc3c(cnc4nc(N)nc(N)c34)C2)c1 (stereo not given)
inactive: SF-268 4.21 µM | 786-0 4.48 µM | M14 1.3 µM | SW-620 10.1 µM | T47D 20.7 µM | U-251 4.79 µM | MOLT-4 2.49 µM | PC-3 8.2 µM | DU-145 13.9 µM | KM12 11.4 µM | SF-539 22.8 µM | RXF 393 15.8 µM | CAKI-1 14 µM | SN12C 8.83 µM | HL-60 10.4 µM | SK-MEL-2 15.2 µM | A549 1.24 µM | NCI-H460 2.07 µM
active: K562 0.573 µM

O=C(O)c1cccc(S(=O)(=O)NN2C(=O)CSC2c2c(O)ccc3ccccc23)c1 (stereo not given)
inactive: SF-268 32.5 µM | 786-0 39.4 µM | M14 42.2 µM | SW-620 21.1 µM | T47D 22.5 µM | U-251 34.3 µM | MOLT-4 19 µM | UO-31 33.4 µM | PC-3 33 µM | K562 31.3 µM | DU-145 44.7 µM | KM12 41.3 µM | SF-539 22.2 µM | RXF 393 45 µM | CAKI-1 25.5 µM | SN12C 36.9 µM | HL-60 28 µM | SK-MEL-2 33.5 µM | A549 41.5 µM | NCI-H460 34.7 µM

COc1c(O)cc2c(c1O)C(=O)C1=C(CCCC1)C2=O
inactive: SF-268 24.4 µM | 786-0 17.3 µM | M14 34.8 µM | SW-620 27.4 µM | T47D 17.9 µM | U-251 21 µM | MOLT-4 4.8 µM | UO-31 7.24 µM | PC-3 22.8 µM | DU-145 22.3 µM | KM12 20.2 µM | SF-539 15.6 µM | RXF 393 14.9 µM | CAKI-1 27.5 µM | SN12C 20.6 µM | HL-60 8.24 µM | SK-MEL-2 37.6 µM | A549 26.1 µM | NCI-H460 27.1 µM

Cc1cc(S(=O)(=O)Nc2nc3ccccc3nc2-c2ccc(Cl)cc2)c(S)cc1Cl
inactive: SF-268 17.7 µM | 786-0 21 µM | M14 19.3 µM | T47D 14.5 µM | U-251 16.4 µM | MOLT-4 13.8 µM | UO-31 15.9 µM | PC-3 17.1 µM | K562 19.9 µM | DU-145 16.3 µM | KM12 17.2 µM | SF-539 19.9 µM | RXF 393 23 µM | CAKI-1 18.7 µM | SN12C 25.6 µM | HL-60 21.6 µM | SK-MEL-2 13.7 µM | A549 16.4 µM | NCI-H460 13.6 µM
